Article PMC10600247, “Impact of C- and N-terminal protection on the stability, metal chelation and antimicrobial properties of calcitermin” (Scientific Reports, 2023)
Residues, ends and D or L forms follow the SMILES beside them.

Tests used:
[1] = T = 298 K, I = 0.1 M (KCl), charges omitted
Excerpt: (§1) Stability constants for proton and metal complexes were obtained from pH-metric titration curves registered at T = 298 K and ionic strength 0.1 M (KCl). The potentiometric apparatus was previously described. Solutions were titrated with 0.1 M carbonate-free KOH. The electrode was daily calibrated for hydrogen ion concentration by titrating HNO3 with the standard base solution, under the same experimental conditions as above. The asymmetry potential and the slope of the electrode couple were computed by means of […][41] and Glee[42] programs. The purities and exact concentrations of the ligand solutions were determined by the Gran method. The […][44] program was employed for the overall formation constant (β) calculations, referred to the following equilibrium equation: pM + qL + rH ⇆ MpLqHr (charges omitted; p is 0 in the case of ligand protonation; r can be negative). The computed standard deviations (referring to random errors only) were given by the program itself and are shown in parentheses as uncertainties on the last significant figure. Hydrolysis constants for metal ions were taken from the literature[45],[46]. The distribution and competition diagrams were computed using the HYSS program.
(§2) 1. Wild-type calcitermin: thermodynamic data
(§3) Wild-type calcitermin (WT) has been previously investigated by our research group in aqueous solutions and ionic medium NaClO4.1 For the sake of comparison, potentiometric studies of WT and its copper and zinc complexes have been performed in a different ionic medium (KCl 0.1 M). The study of the speciation under different experimental conditions, changing ionic medium and metal-ligand ratio, is essential to comprehensively describe the thermodynamics of calcitermin, which is usually found in multicomponent media like biological fluids.
(§4) Table S1. Equilibrium constants for protonation of WT and its Cu2+ and Zn2+ complex formation at T = 298 K and I = 0.1 M (KCl). Values in parentheses are standard deviations on the last significant figure.

[2] = Potentiometry: protonation of the ligand; assay type: physicochemical; details: T = 298 K, I = 0.1 M (KCl)
Excerpt: as §1, §2, §3, §4

[3] = system: S. aureus (ATCC 25293); assay: In vitro anti-S. aureus CFU assay; assay type: cell-based, Staphylococcus aureus; details: 3 h, pH 5.4; for mean CFU number ± S.D.: per 0.1 mL
Description: All microbes were grown at 37 °C in Tryptic Soy Broth (TSB; Biolife, Milan, Italy) or Tryptic Soy Agar plates (TSA, Biolife, Milan, Italy). Peptides were tested at a final concentration C = 0.128, 0.064, 0.032 mg/mL, in the presence or absence of ZnCl2 or CuCl2, at a M:L molar ratio 0.9:1. Briefly, all the microbes were expanded in TSB at 37 °C under agitation for 12 h and then sub-cultured by 1:10 dilution in TSB under the same conditions until reaching OD600nm = 0.3–0.4, as measured by spectrophotometric reading using a GENESYS 10S UV–Vis spectrophotometer (Thermo Scientific, Milan, Italy), corresponding to 0.9–1.2 × 10^7 colony forming units (CFU) per mL, 1.5–2 × 10^8 CFU/mL and 2.4–3.2 × 10^8 CFU/mL, for C. albicans, S. aureus and E. coli respectively. The cultures were then centrifuged at 4500 rpm for 10 min in a SL 8 centrifuge (TX-150 Rotor) (Thermo Scientific, Milan, Italy), and the cellular pellets were washed with PBS pH 5.4. Pelletized cultures were then suspended in 10 mL of PBS pH 5.4, then the suspensions were diluted to a final concentration of 10^4 CFU/mL. Aliquots of 100 µl (corresponding to 10^3 CFU) were seeded in each well of a 96-wells plate. 3 µl of TSB at pH 5.4 were added to each well to obtain a final 1.5% TSB concentration in the culture medium. Peptides were serially diluted in PBS pH 5.4 to C = 0.257, 0.128, and 0.064 mg/mL. ZnCl2 and CuCl2 solutions were added where requested to obtain a M:L ratio 0.9:1. 100 µl of the prepared peptides ± ZnCl2/CuCl2 solutions were then added to each well, obtaining the final 0.128, 0.064 and 0.032 mg/mL peptide concentrations in a total 0.2 mL volume. PBS alone and PBS + ZnCl2/CuCl2 solutions were included as controls. The plates were incubated at 37 °C on a platform rocker with slow stirring for 3 and 24 h. At the end of the incubation times, 100 µl aliquots were taken from each sample and diluted in PBS pH 5.4 to be seeded on TSA plates. Specifically, aliquots were diluted 1:10 at 3 h, and 1:200, 1:100,000 and 1:10 at 24 h, for C. albicans, E. coli, and S. aureus respectively. After incubation for 24 h at 37 °C, grown CFUs were enumerated. Samples were assayed in triplicate in two independent experiments. Student’s t-test was used for the evaluation of significance in biological tests; a p value ≤ 0.05 was considered significant.

[4] = peptide 0.032 mg/mL + CuCl2 (0.9:1)
[5] = peptide 0.032 mg/mL + ZnCl2 (0.9:1)
[6] = peptide 0.064 mg/mL + CuCl2 (0.9:1)
[7] = peptide 0.064 mg/mL + ZnCl2 (0.9:1)
[8] = peptide 0.128 mg/mL + CuCl2 (0.9:1)

## CC[C@H](C)[C@H](NC(=O)[C@H](C)NC(=O)[C@@H](N)C(C)C)C(=O)N[C@@H](C)C(=O)N[C@@H](CC(C)C)C(=O)N[C@@H](CCCCN)C(=O)N[C@@H](C)C(=O)N[C@@H](C)C(=O)N[C@@H](Cc1c[nH]cn1)C(=O)N[C@@H](Cc1ccc(O)cc1)C(=O)N[C@@H](Cc1c[nH]cn1)C(=O)N[C@H](C(=O)N[C@@H](Cc1c[nH]cn1)C(=O)N[C@@H](CCCCN)C(=O)N[C@@H](CCC(=O)O)C(=O)O)[C@@H](C)O [WT, VAIALKAAHYHTHKE, reference compound] (H-VAIALKAAHYHTHKE-OH)
[1]
  logβ [CuH2L]: 33.77(4)
  logβ [CuH3L]: 40.77(4)
  logβ [CuH4L]: 46.97(3)
  logβ [CuH5L]: 52.07(3)
  logβ [CuH6L]: 56.40(6)
  logβ [CuH-1L]: 6.90(5)
  logβ [CuH-3L]: -14.19(5)
  logβ [CuHL]: 26.20(4)
  logβ [CuL]: 16.83(5)
  logβ [ZnH2L]: 28.59(5)
  logβ [ZnH3L]: 36.47(5)
  logβ [ZnH4L]: 43.55(3)
  logβ [ZnH5L]: 49.30(8)
  logβ [ZnH-1L]: -0.2(1)
  logβ [ZnH-2L]: -10.8(1)
  logβ [ZnHL]: 20.11(6)
  logβ [ZnL]: 10.35(8)
[1]; Table S1
  logK, line of [CuH2L]: 7.00
  logK, line of [CuH3L]: 6.21
  logK, line of [CuH4L]: 5.09
  logK, line of [CuH5L]: 4.34
  logK, line of [CuH-1L]: 9.93
  logK, line of [CuHL]: 7.58
  logK, line of [CuL]: 9.37
  logK, line of [ZnH2L]: 7.87
  logK, line of [ZnH3L]: 7.08
  logK, line of [ZnH4L]: 5.75
  logK, line of [ZnH-1L]: 10.5
  logK, line of [ZnH-2L]: 10.7
  logK, line of [ZnHL]: 8.48
  logK, line of [ZnL]: 9.77
[2]
  protonation logK H2L: 10.53
  protonation logK H3L: 9.50
  protonation logK H4L: 7.73
  protonation logK H5L: 6.93
  protonation logK H6L: 6.33
  protonation logK H7L: 5.65
  protonation logK H8L: 4.22
  protonation logK H9L: 2.93
  protonation logK HL: 10.61
  protonation logβ H2L: 21.14(2)
  protonation logβ H3L: 30.64(4)
  protonation logβ H4L: 38.38(4)
  protonation logβ H5L: 45.31(4)
  protonation logβ H6L: 51.64(4)
  protonation logβ H7L: 57.29(4)
  protonation logβ H8L: 61.51(4)
  protonation logβ H9L: 64.44(5)
  protonation logβ HL: 10.61(6)
[3]; [4]
  CFU decrease/increase with respect to untreated controls: +30%
  mean CFU number ± S.D.: 209 ± 44 CFU
[3]; [5]
  CFU decrease/increase with respect to untreated controls: +5%
  mean CFU number ± S.D.: 169 ± 40 CFU
[3]; [6]
  CFU decrease/increase with respect to untreated controls: +9%
  mean CFU number ± S.D.: 175 ± 30 CFU
[3]; [7]
  CFU decrease/increase with respect to untreated controls: -14%
  mean CFU number ± S.D.: 139 ± 20 CFU
[3]; [8]
  CFU decrease/increase with respect to untreated controls: +42%
  mean CFU number ± S.D.: 229 ± 55 CFU
[3]; peptide 0.128 mg/mL + ZnCl2 (0.9:1), listed as WT calcitermin
  CFU decrease/increase with respect to untreated controls: -41%
[3]; peptide 0.128 mg/mL + ZnCl2 (0.9:1)
  mean CFU number ± S.D.: 96 ± 21 CFU
[3]; peptide alone 0.032 mg/mL
  CFU decrease/increase with respect to untreated controls: -9.3%
  mean CFU number ± S.D.: 146 ± 7 CFU
[3]; peptide alone 0.064 mg/mL
  CFU decrease/increase with respect to untreated controls: -1.2%
  mean CFU number ± S.D.: 159 ± 45 CFU
[3]; peptide alone 0.128 mg/mL
  CFU decrease/increase with respect to untreated controls: -1.8%
  mean CFU number ± S.D.: 158 ± 59 CFU
